# Measured values reported in PubChem BioAssay (NCI).
#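 Five concentrations, 48 hours, 96-well plates. TGI: total growth inhibition.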
# Experiments:
# Assay in all cases: NCI-60 cell line screen, 48 h
# CCRF-CEM leukemia = tested on: CCRF-CEM leukemia
# SN12C renal = tested on: SN12C renal
# A549 NSCLC = tested on: A549 NSCLC
# SF-539 CNS = tested on: SF-539 CNS
# IGROV1 ovarian = tested on: IGROV1 ovarian
# ACHN renal = tested on: ACHN renal
# MCF7 breast = tested on: MCF7 breast
# BT-549 breast = tested on: BT-549 breast
# SNB-19 CNS = tested on: SNB-19 CNS
# A498 renal = tested on: A498 renal
# SK-OV-3 ovarian = tested on: SK-OV-3 ovarian
# SK-MEL-28 melanoma = tested on: SK-MEL-28 melanoma
# OVCAR-4 ovarian = tested on: OVCAR-4 ovarian
# UACC-257 melanoma = tested on: UACC-257 melanoma
# CAKI-1 renal = tested on: CAKI-1 renal
# K-562 leukemia = tested on: K-562 leukemia
# NCI-H23 lung = tested on: NCI-H23 lung
# HCT-116 colon = tested on: HCT-116 colon
# SK-MEL-5 melanoma = tested on: SK-MEL-5 melanoma
# HOP-62 NSCLC = tested on: HOP-62 NSCLC
# UO-31 renal = tested on: UO-31 renal
# M14 melanoma = tested on: M14 melanoma
# SR leukemia = tested on: SR leukemia
# T-47D breast = tested on: T-47D breast
# LOX IMVI melanoma = tested on: LOX IMVI melanoma
# MDA-N = tested on: MDA-N
# UACC-62 melanoma = tested on: UACC-62 melanoma
# SF-295 CNS = tested on: SF-295 CNS
# HL-60(TB) leukemia = tested on: HL-60(TB) leukemia
# NCI-H522 lung = tested on: NCI-H522 lung
# OVCAR-3 ovarian = tested on: OVCAR-3 ovarian
# PC-3 prostate = tested on: PC-3 prostate
# OVCAR-5 ovarian = tested on: OVCAR-5 ovarian
# DU-145 prostate = tested on: DU-145 prostate
# MDA-MB-231 breast = tested on: MDA-MB-231 breast
# HCC-2998 colon = tested on: HCC-2998 colon
# 786-0 renal = tested on: 786-0 renal
# EKVX NSCLC = tested on: EKVX NSCLC
# TK-10 renal = tested on: TK-10 renal
# SF-268 CNS = tested on: SF-268 CNS
# HCT-15 colon = tested on: HCT-15 colon
# SW-620 colon = tested on: SW-620 colon
# RPMI-8226 leukemia = tested on: RPMI-8226 leukemia
# COLO 205 colon = tested on: COLO 205 colon
# HT29 colon = tested on: HT29 colon
# NCI-H226 lung = tested on: NCI-H226 lung
# HOP-92 NSCLC = tested on: HOP-92 NSCLC
# SK-MEL-2 melanoma = tested on: SK-MEL-2 melanoma
# KM12 colon = tested on: KM12 colon
# MDA-MB-435 = tested on: MDA-MB-435
# OVCAR-8 ovarian = tested on: OVCAR-8 ovarian
# NCI/ADR-RES ovarian = tested on: NCI/ADR-RES ovarian
# MOLT-4 leukemia = tested on: MOLT-4 leukemia
# U251 CNS = tested on: U251 CNS
# NCI-H460 lung = tested on: NCI-H460 lung
# MALME-3M melanoma = tested on: MALME-3M melanoma
# SNB-75 CNS = tested on: SNB-75 CNS
# HS 578T breast = tested on: HS 578T breast
# RXF 393 renal = tested on: RXF 393 renal
structure (smiles),measurement,setting,value
COC(=O)c1ccc(NC(=O)c2cc3c(cc2Br)OCO3)o1,TGI,CCRF-CEM leukemia,> 100 µM
same,TGI,SN12C renal,> 100 µM
same,TGI,A549 NSCLC,> 100 µM
same,TGI,SF-539 CNS,> 100 µM
same,TGI,IGROV1 ovarian,> 100 µM
same,TGI,ACHN renal,> 100 µM
same,TGI,MCF7 breast,> 100 µM
same,TGI,BT-549 breast,> 100 µM
same,TGI,SNB-19 CNS,> 100 µM
same,TGI,A498 renal,> 100 µM
same,TGI,SK-OV-3 ovarian,> 100 µM
same,TGI,SK-MEL-28 melanoma,> 100 µM
same,TGI,OVCAR-4 ovarian,> 100 µM
same,TGI,UACC-257 melanoma,> 100 µM
same,TGI,CAKI-1 renal,> 100 µM
same,TGI,K-562 leukemia,> 100 µM
same,TGI,NCI-H23 lung,> 100 µM
same,TGI,HCT-116 colon,> 100 µM
same,TGI,SK-MEL-5 melanoma,> 100 µM
same,TGI,HOP-62 NSCLC,> 100 µM
same,TGI,UO-31 renal,> 100 µM
same,TGI,M14 melanoma,> 100 µM
same,TGI,SR leukemia,> 100 µM
same,TGI,T-47D breast,> 100 µM
same,TGI,LOX IMVI melanoma,> 100 µM
same,TGI,MDA-N,> 100 µM
same,TGI,UACC-62 melanoma,> 100 µM
same,TGI,SF-295 CNS,> 100 µM
same,TGI,HL-60(TB) leukemia,> 100 µM
same,TGI,NCI-H522 lung,> 100 µM
same,TGI,OVCAR-3 ovarian,> 100 µM
same,TGI,PC-3 prostate,> 100 µM
same,TGI,OVCAR-5 ovarian,> 100 µM
same,TGI,DU-145 prostate,> 100 µM
same,TGI,MDA-MB-231 breast,> 100 µM
same,TGI,HCC-2998 colon,> 100 µM
same,TGI,786-0 renal,> 100 µM
same,TGI,EKVX NSCLC,> 100 µM
same,TGI,TK-10 renal,> 100 µM
same,TGI,SF-268 CNS,69.8 µM
same,TGI,HCT-15 colon,> 100 µM
same,TGI,SW-620 colon,> 100 µM
same,TGI,RPMI-8226 leukemia,> 100 µM
same,TGI,COLO 205 colon,> 100 µM
same,TGI,HT29 colon,> 100 µM
same,TGI,NCI-H226 lung,> 100 µM
same,TGI,HOP-92 NSCLC,> 100 µM
same,TGI,SK-MEL-2 melanoma,> 100 µM
same,TGI,KM12 colon,> 100 µM
same,TGI,MDA-MB-435,> 100 µM
same,TGI,OVCAR-8 ovarian,> 100 µM
same,TGI,NCI/ADR-RES ovarian,> 100 µM
same,TGI,MOLT-4 leukemia,> 100 µM
same,TGI,U251 CNS,> 100 µM
Clc1ccc(C2ON=C(c3ccccc3)N2C23CC4CC(CC(C4)C2)C3)c(Cl)c1 (stereo not given),TGI,CCRF-CEM leukemia,> 10 µM
same,TGI,SN12C renal,> 10 µM
same,TGI,A549 NSCLC,> 10 µM
same,TGI,SF-539 CNS,> 10 µM
same,TGI,IGROV1 ovarian,> 10 µM
same,TGI,NCI-H460 lung,> 10 µM
same,TGI,ACHN renal,> 10 µM
same,TGI,MCF7 breast,> 10 µM
same,TGI,SNB-19 CNS,> 10 µM
same,TGI,A498 renal,> 10 µM
same,TGI,SK-OV-3 ovarian,> 10 µM
same,TGI,SK-MEL-28 melanoma,> 10 µM
same,TGI,OVCAR-4 ovarian,> 10 µM
same,TGI,UACC-257 melanoma,> 10 µM
same,TGI,CAKI-1 renal,> 10 µM
same,TGI,K-562 leukemia,> 10 µM
same,TGI,NCI-H23 lung,> 10 µM
same,TGI,HCT-116 colon,> 10 µM
same,TGI,SK-MEL-5 melanoma,> 10 µM
same,TGI,HOP-62 NSCLC,> 10 µM
same,TGI,UO-31 renal,> 10 µM
same,TGI,M14 melanoma,> 10 µM
same,TGI,T-47D breast,> 10 µM
same,TGI,MALME-3M melanoma,> 10 µM
same,TGI,LOX IMVI melanoma,> 10 µM
same,TGI,MDA-N,> 10 µM
same,TGI,UACC-62 melanoma,> 10 µM
same,TGI,SF-295 CNS,> 10 µM
same,TGI,NCI-H522 lung,> 10 µM
same,TGI,OVCAR-3 ovarian,> 10 µM
same,TGI,PC-3 prostate,> 10 µM
same,TGI,OVCAR-5 ovarian,> 10 µM
same,TGI,DU-145 prostate,> 10 µM
same,TGI,MDA-MB-231 breast,> 10 µM
same,TGI,HCC-2998 colon,> 10 µM
same,TGI,786-0 renal,> 10 µM
same,TGI,EKVX NSCLC,> 10 µM
same,TGI,SNB-75 CNS,> 10 µM
same,TGI,TK-10 renal,> 10 µM
same,TGI,SF-268 CNS,> 10 µM
same,TGI,HCT-15 colon,> 10 µM
same,TGI,SW-620 colon,> 10 µM
same,TGI,RPMI-8226 leukemia,> 10 µM
same,TGI,COLO 205 colon,> 10 µM
same,TGI,HT29 colon,> 10 µM
same,TGI,NCI-H226 lung,> 10 µM
same,TGI,HOP-92 NSCLC,> 10 µM
same,TGI,SK-MEL-2 melanoma,> 10 µM
same,TGI,KM12 colon,> 10 µM
same,TGI,MDA-MB-435,> 10 µM
same,TGI,OVCAR-8 ovarian,> 10 µM
same,TGI,NCI/ADR-RES ovarian,> 10 µM
same,TGI,HS 578T breast,> 10 µM
same,TGI,MOLT-4 leukemia,> 10 µM
same,TGI,RXF 393 renal,> 10 µM
same,TGI,U251 CNS,> 10 µM
